Test results taken from patent publication US5118804A, “Process for preparing alkyl-1-thioglycosides and alkyl-glycosides, anomer mixtures thereof” (Beghin-Say, SA, priority 1989, dated 1992).

How the values were obtained:
[1] = Critical micelle concentration (CMC), Tsuchiya and Saito method; format: physicochemical; details: α,β anomer mixtures
Source text: The critical micelle concentrations as measured according to the Tsuchiya and Saito method, J. Biochem., 96 (1984), 1593, are set forth in Table 1 for various fatty acid chain alkyl-1-thio-α,β-glycosides prepared according to the present invention.

[2] = system: cytochromes P-45011β and P-450scc; experiment: Extraction of cytochromes P-45011β and P-450scc from mitochondrions of the bovine suprarenal cortex, and inactivation of the proteins; details: proteins 20 mg/ml, detergent 15 mg/ml; for Extraction rate [after 1 h] / Inactivation rate [after 1 h]: pH 7.4, after 1 h; for Extraction rate [after 2 h] / Inactivation rate [after 2 h]: pH 7.4, after 2 h
Source text: For example, but without implying any limitation with regard to other uses, several alkyl-1-thio-α,β-glycosides prepared in the manner of the invention were used to extract membrane proteins from the bovine suprarenal cortex. The suprarenal cortex cells contain enzyme systems which cause steroidogenesis. […] In conventionally used methods, they are optimally extracted in the presence of sodium cholate. However, the ionic nature of the sodium cholate detergent results in a greater denaturation rate of the enzymatic proteins as the contact time between the proteins and the sodium cholate is prolonged. Accordingly, and in particular, the sodium cholate detergent presents difficulties when used to reconstitute the lipid environment of these proteins.
(§1) The membrane proteins are extracted by incubation in a suitable buffer containing 50 mM potassium phosphate, pH=7.4, 1 mM dithiothreitol, 1 mM EDTA, and 10 μM desoxycorticosterone. The respective concentrations of proteins and detergents are 20 and 15 mg/ml. Following incubation, the medium is centrifuged (100,000 g, 45 mins.) and the cytochromes P-450 are metered into the supernatant by recording the differential spectrum for the reduced form Fe^2+ and the complex Fe^2+ CO. Denaturation is estimated by the absorption difference measured at 450 nm (native form) and 420 nm (denatured form).

cytochrome P-45017α = experiment: Extraction of cytochrome P-45017α from bovine suprarenal cortex microsomes, and inactivation of the protein; parameters: unit not given here; details: 30 mins. at 4° C, proteins 4 mg/ml, detergent 15 mg/ml
Source text: These CMC values allow the glycosides to be used as detergents in membrane protein extraction. For example, but without implying any limitation with regard to other uses, several alkyl-1-thio-α,β-glycosides prepared in the manner of the invention were used to extract membrane proteins from the bovine suprarenal cortex. The suprarenal cortex cells contain enzyme systems which cause steroidogenesis. These are membrane enzymes in the mitochondrions (cytochromes P-45011β and P-450scc) and in the microsomes (cytochrome P-45017α). In conventionally used methods, they are optimally extracted in the presence of sodium cholate. However, the ionic nature of the sodium cholate detergent results in a greater denaturation rate of the enzymatic proteins as the contact time between the proteins and the sodium cholate is prolonged. Accordingly, and in particular, the sodium cholate detergent presents difficulties when used to reconstitute the lipid environment of these proteins.
as §1, with “The mitochondrions of the bovine suprarenal cortex are prepared in the manner of M. Satre & P. V. Vignais (Biochemistry, 13 (1974) 2201). The membrane” for “The membrane”
The extraction of cytochrome P-45017α involved obtaining the bovine suprarenal cortex microsomes in the form of a button after 45 mins. centrifugation at 100,000 g of the post-mitochondrial supernatant. The membrane proteins are extracted as indicated above in reference to Table 2 for 30 mins. at 4° C. The respective concentrations of the proteins and detergents are 4 and 15 mg/ml. Following centrifugation, the activity of cytochrome P-45017α is measured in the supernatant by checking the transformation of (^3 H)-pregnenolone into (^3 H)-17α-hydroxy-pregnenolone.

[3] = Chem. Pharm. Bull., 33 (1985), 503-8; cited from earlier work

Row | SMILES | Critical micelle concentration (CMC) [1] [mM] | Extraction rate (cytochrome P-45017α) | Inactivation rate (cytochrome P-45017α) | Extraction rate [after 1 h] [2] [%] | Inactivation rate [after 1 h] [2] [%] | Extraction rate [after 2 h] [2] [%] | Inactivation rate [after 2 h] [2] [%] | CMC of the prior art mentioned in the literature [3] [mM]
1 | CCCCCCCSC1O[C@H](CO)[C@@H](O)[C@H](O)[C@H]1O (stereo partly drawn) [1-heptyl-1-thio-α,β-D-glucopyranoside] | 4.1 | 85 | 0 | 0 | 48 | 0 | 47 | 
2 | CCCCCCCSC1O[C@H](CO)[C@@H](O[C@@H]2O[C@H](CO)[C@H](O)[C@H](O)[C@H]2O)[C@H](O)[C@H]1O (stereo partly drawn) [1-heptyl-1-thio-α,β-lactoside] |  | 57 | 0 | 0 | 30 | 0 | 50 | 
3 | CCCCCCCCSC1O[C@H](CO)[C@@H](O[C@@H]2O[C@H](CO)[C@H](O)[C@H](O)[C@H]2O)[C@H](O)[C@H]1O (stereo partly drawn) [1-octyl-1-thio-α,β-lactoside] | 0.2 | 65 | 57 | 0 | 55 | 0 | 62 | 
4 | CCCCCCCCS[C@@H]1O[C@H](CO)[C@@H](O)[C@H](O)[C@H]1O [1-octyl-1-thio-β- -- D-glucopyranoside, 1-octyl-1-thio-β-D-glucopyranoside, reference compound] |  | 31 | 0 | 0 | 18 | 48 | 91 | 9.0
5 | C[C@H](CCC(=O)O)[C@H]1CC[C@H]2[C@@H]3[C@H](O)C[C@@H]4C[C@H](O)CC[C@]4(C)[C@H]3C[C@H](O)[C@]12C [sodium cholate, reference compound] |  |  |  | 0 | 94 |  |  | 

Further lines, with some results ahead:

Row | Critical micelle concentration (CMC) [1] [mM] | Extraction rate (cytochrome P-45017α) | Inactivation rate (cytochrome P-45017α) | SMILES | Extraction rate [after 1 h] [2] [%] | Inactivation rate [after 1 h] [2] [%] | Extraction rate [after 2 h] [2] [%] | Inactivation rate [after 2 h] [2] [%] | CMC of the prior art mentioned in the literature [3] [mM]
6 | 3.0 | 93 | 0 | CCCCCCCCSC1O[C@H](CO)[C@@H](O)[C@H](O)[C@H]1O (stereo partly drawn) [1-octyl-1-thio-α,β- -- D-glucopyranoside, 1-octyl-1-thio-α,β-D-glucopyranoside] | 43 | 60 | 49 | 72 | 
7 | 0.2 | 72 | 0 | CCCCCCCCSC1O[C@H](CO)[C@@H](O[C@@H]2O[C@H](CO)[C@@H](O)[C@H](O)[C@H]2O)[C@H](O)[C@H]1O (stereo partly drawn) [1-octyl-1-thio-α,β-cellobioside] | 0 | 55 | 0 | 20 | 
8 | 0.2 | 58 | 0 | CCCCCCCCSC1O[C@H](CO)[C@@H](O[C@H]2O[C@H](CO)[C@@H](O)[C@H](O)[C@H]2O)[C@H](O)[C@H]1O (stereo partly drawn) [1-octyl-1-thio-α,β-maltoside] | 0 | 48 | 21 | 94 | 
9 |  | 89 | 20 | CCCCCCCCO[C@@H]1O[C@H](CO)[C@@H](O)[C@H](O)[C@H]1O [1-octyl-β-D-glucopyranoside, reference compound] | 0 | 100 | 0 | 100 | 
